Results from ChEMBL document CHEMBL1201862, “PubChem BioAssay data set” (2004).
Activity calls are given as the source filed them.

What was measured:
[1] = biological target: Voltage-dependent T-type calcium channel subunit alpha-1H (Homo sapiens, UniProt O95180); assay type: functional;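 note: channel activity triggered by adding a high calcium stimulation buffer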
[2] = biological target: T1, Lysine-specific demethylase 4C (Homo sapiens, UniProt Q9H3R0); experiment: inhibition of JMJD2C H3K9me3 demethylation – biochemical, DELFIA europium, cherry-picked samples, dose response (AID 488835); assay type: functional
T1 sequence (Q9H3R0 whole entry): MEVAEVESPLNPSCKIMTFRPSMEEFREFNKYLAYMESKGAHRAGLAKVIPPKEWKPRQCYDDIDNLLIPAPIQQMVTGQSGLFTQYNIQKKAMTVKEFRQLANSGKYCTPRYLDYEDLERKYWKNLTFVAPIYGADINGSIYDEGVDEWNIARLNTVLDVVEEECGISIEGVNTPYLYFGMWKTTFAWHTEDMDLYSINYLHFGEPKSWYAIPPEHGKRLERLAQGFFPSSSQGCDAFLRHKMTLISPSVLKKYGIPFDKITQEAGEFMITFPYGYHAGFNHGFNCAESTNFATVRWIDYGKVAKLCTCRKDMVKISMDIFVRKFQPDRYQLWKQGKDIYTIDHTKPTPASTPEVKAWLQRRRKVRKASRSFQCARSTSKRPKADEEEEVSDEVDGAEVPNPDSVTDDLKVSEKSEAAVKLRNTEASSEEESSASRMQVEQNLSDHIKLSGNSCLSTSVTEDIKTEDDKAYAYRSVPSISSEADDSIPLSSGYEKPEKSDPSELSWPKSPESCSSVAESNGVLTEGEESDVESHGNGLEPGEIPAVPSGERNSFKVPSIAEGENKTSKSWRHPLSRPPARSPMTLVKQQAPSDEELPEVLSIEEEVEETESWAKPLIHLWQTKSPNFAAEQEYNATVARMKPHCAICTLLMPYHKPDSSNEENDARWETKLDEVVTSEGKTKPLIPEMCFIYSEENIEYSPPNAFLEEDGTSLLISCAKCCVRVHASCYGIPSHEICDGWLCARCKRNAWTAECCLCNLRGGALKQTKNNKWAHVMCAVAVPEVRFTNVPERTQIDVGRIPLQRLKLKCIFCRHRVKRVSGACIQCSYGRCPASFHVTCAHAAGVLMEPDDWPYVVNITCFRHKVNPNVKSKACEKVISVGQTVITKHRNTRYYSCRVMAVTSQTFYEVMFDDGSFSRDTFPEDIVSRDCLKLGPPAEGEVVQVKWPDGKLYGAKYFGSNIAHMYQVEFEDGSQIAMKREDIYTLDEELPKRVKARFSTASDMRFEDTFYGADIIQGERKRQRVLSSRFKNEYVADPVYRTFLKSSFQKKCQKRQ

Streptococcus = experiment: GAS UMAA2166 growth inhibition – luminescence, BacTiterGlo, counter-screen for streptokinase expression inhibitor project, dose response (AID 1915); assay type: functional, organism-based;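 note: potency for reduction of bacterial viability or growth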
[3] = test system: Streptococcus sp. 'group A'; experiment: Streptococcus pyogenes SK(-)GAS viability under kanamycin – luminescence, BacTiterGlo, confirmation, counter-screen for streptokinase expression inhibitor project, dose response (AID 1900); assay type: functional, organism-based
Nonstructural protein 1 = Nonstructural protein 1 (Influenza A virus, UniProt Q194T2); assay type: functional, Influenza A virus (A/California/07/2009(H1N1))
Sequence of Nonstructural protein 1 (Q194T2 whole entry): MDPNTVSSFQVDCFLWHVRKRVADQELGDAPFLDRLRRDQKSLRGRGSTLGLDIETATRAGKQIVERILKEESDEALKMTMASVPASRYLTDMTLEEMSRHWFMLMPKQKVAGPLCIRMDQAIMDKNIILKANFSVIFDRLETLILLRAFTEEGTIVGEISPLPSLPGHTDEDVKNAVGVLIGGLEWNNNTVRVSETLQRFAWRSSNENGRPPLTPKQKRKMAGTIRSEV

[4] = luciferase reporter signal suppression in cells – H4 neuroglioma cells, luminescence, dose response (AID 1990); assay type: functional, cell-based
[5] = Luminescence Cell-Based Dose Response HTS to Identify Inhibitors of 5'UTR Stem-Loop Driven Prion Protein mRNA Translation in H4 Neuroglioblastoma Cells. [Related pubchem assays: 1827 (Project Summary), 1813 (Primary HTS)]; assay type: functional
[6] = alpha-synuclein stem-loop luciferase translation blockers – H4 neuroglioma cells, luminescence, confirmation (AID 1988); assay type: functional, cell-based
HEK293 [7] = experiment: EBV LMP1 TES2 canonical NF-kB signalling blockers – cell-based, HEK293, luciferase, cherry-pick, dose response (AID 588343); assay type: functional; details: Homo sapiens
[8] = biological target: Luciferin 4-monooxygenase (Photinus pyralis, UniProt P08659); experiment: inhibition of purified Photinus pyralis luciferase – biochemical, luminescence, dose response (AID 1891)
Sequence of Luciferin 4-monooxygenase (P08659 whole entry): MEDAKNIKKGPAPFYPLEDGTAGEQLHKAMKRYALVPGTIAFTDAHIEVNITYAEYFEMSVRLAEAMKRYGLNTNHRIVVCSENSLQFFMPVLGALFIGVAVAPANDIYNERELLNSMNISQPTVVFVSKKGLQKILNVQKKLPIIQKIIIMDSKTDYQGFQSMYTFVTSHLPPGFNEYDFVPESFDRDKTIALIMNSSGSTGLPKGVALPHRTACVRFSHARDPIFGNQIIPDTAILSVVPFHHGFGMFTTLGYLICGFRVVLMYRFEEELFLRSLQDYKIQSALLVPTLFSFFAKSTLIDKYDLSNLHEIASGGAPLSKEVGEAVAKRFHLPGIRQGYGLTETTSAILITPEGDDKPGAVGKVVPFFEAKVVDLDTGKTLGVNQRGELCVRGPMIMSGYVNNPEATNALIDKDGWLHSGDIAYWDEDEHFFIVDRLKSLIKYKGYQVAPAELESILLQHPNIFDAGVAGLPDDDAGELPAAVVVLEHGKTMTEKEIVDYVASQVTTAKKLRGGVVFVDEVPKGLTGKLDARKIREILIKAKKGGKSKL

[9] = Luminescence Cell-Based Dose Confirmation HTS to Identify Inhibitors of Platelet Dense Granule Release. [Related pubchem assays: 1663 (Primary HTS), 1678 (Summary of Project)]; assay type: functional
[10] = Counterscreen for activators of the function of SWI/SNF related, matrix associated, actin dependent regulator of chromatin, subfamily a, member 2 (SMARCA2, BRM): Luminescence-based cell-based high throughput dose response assay to identify non-selective compounds using the VP16 reporter assay.; assay type: functional
[11] = biological target: SWI/SNF-related matrix-associated actin-dependent regulator of chromatin subfamily A member 2 (Homo sapiens, UniProt P51531); experiment: Luminescence-based cell-based high throughput dose response assay to identify activators of the function of SWI/SNF related, matrix associated, actin dependent regulator of chromatin, subfamily a, member 2 (SMARCA2, BRM).; assay type: functional
Sequence of SWI/SNF-related matrix-associated actin-dependent regulator of chromatin subfamily A member 2 (P51531 whole entry): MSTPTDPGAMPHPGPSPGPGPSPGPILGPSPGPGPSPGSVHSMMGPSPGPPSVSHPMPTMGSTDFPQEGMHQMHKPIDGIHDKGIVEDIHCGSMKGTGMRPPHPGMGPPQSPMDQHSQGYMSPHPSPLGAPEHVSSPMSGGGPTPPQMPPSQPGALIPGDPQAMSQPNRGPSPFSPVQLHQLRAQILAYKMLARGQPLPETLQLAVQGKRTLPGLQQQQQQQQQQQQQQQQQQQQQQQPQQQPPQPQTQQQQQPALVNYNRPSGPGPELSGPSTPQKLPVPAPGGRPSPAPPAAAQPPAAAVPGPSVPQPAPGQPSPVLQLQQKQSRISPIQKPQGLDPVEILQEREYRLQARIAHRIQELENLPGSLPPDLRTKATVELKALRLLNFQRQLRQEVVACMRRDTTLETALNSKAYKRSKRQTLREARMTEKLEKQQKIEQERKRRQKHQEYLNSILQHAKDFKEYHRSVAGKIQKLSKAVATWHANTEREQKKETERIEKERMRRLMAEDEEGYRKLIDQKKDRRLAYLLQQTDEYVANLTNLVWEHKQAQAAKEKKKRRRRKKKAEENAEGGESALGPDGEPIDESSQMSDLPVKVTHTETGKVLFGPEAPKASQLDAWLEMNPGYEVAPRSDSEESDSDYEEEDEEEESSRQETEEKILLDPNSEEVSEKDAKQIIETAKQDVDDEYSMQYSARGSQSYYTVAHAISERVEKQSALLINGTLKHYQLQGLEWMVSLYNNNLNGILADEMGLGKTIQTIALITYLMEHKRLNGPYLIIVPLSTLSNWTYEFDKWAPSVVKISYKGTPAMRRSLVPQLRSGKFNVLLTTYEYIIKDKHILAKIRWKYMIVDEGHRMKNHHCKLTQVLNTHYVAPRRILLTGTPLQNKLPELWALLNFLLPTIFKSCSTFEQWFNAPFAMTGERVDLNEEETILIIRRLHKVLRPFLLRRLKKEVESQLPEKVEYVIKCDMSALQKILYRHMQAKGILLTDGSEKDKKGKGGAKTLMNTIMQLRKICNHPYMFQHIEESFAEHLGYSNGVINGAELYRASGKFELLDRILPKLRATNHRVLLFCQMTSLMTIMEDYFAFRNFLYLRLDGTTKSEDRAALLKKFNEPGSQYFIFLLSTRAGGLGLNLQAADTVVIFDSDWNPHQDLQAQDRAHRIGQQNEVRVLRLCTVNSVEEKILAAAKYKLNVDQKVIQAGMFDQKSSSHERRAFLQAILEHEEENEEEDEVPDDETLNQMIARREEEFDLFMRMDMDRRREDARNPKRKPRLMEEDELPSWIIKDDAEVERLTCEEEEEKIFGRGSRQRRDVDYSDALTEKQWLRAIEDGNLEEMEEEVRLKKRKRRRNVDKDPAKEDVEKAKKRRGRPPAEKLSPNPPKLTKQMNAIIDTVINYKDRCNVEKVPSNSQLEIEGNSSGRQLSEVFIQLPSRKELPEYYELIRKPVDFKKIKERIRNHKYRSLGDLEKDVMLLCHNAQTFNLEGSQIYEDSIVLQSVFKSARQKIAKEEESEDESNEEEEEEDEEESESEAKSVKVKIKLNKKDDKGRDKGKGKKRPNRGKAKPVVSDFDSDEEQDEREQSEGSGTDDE

cells [12] = assay type: functional
[13] = biological target: T2, Heat shock factor protein 1 (Mus musculus, UniProt P38532); experiment: enhancement of HSF1-driven luciferase signal – cell-based, NIH3T3, luminescence, dose retest, confirmation (AID 435004); assay type: functional;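 note: stress induced by proteasome inhibitor MG132 added 30 min after compound; luciferase reporter driven by HSF1 response element in NIH3T3 cells; actives raise luminescence as potentiators of the MG132 stress response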
T2 sequence (P38532 whole entry): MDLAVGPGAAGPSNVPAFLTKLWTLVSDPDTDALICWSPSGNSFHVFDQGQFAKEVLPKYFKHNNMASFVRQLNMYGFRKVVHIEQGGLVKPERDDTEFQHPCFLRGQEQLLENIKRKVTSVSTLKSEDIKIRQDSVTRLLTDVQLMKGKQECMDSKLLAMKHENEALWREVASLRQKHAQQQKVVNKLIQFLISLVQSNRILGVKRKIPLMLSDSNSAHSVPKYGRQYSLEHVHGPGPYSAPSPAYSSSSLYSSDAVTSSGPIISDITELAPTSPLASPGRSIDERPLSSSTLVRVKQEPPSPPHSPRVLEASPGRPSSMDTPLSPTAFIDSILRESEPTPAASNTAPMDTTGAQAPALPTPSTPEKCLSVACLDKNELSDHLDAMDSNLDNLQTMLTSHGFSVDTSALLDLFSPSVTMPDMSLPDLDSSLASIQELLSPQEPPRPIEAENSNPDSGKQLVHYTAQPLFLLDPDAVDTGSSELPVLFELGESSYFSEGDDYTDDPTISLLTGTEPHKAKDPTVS

cells [14] = assay type: functional, cell-based
cells [15] = assay type: functional, cell-based; remark: listed apart in the source
HEK293 [16] = experiment: cells; assay type: functional, cell-based; details: Homo sapiens
Streptokinase A = biological target: T3, Streptokinase A (Streptococcus pyogenes serotype M1, UniProt P10520); experiment: viability-normalized secreted streptokinase activity reduction – plasminogen activation absorbance, OD405, dose response (AID 1914); assay type: functional, Streptococcus pyogenes M1 GAS;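 note: secreted streptokinase activity via plasminogen activation per viability signal from cell pellet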
T3 sequence (P10520 whole entry): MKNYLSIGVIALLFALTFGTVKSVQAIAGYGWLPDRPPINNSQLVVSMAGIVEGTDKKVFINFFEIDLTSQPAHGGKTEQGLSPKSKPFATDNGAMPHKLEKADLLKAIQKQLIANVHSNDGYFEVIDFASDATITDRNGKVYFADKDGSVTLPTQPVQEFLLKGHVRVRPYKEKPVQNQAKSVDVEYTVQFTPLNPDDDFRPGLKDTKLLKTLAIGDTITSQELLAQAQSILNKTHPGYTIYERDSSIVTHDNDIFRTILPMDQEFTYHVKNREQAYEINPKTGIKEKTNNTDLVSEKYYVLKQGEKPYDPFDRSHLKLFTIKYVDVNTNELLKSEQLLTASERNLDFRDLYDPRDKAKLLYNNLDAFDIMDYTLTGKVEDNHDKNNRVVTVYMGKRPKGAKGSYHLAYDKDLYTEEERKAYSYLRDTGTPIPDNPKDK

HEK293 [17] = experiment: cells; assay type: functional, cell-based; details: Homo sapiens; remark: listed apart in the source
HEK293 [18] = experiment: NOD2 signaling inhibitors in MDP-stimulated cells, cell-based, uHTS, luminescence (AID 2001); assay type: functional; details: Homo sapiens
HEK293 [19] = experiment: inhibition of NOD1-driven NF-kB reporter – cell-based, luminescence, uHTS, primary screen (AID 1578); assay type: functional; details: Homo sapiens
[20] = biological target: T4, Ubiquitin-conjugating enzyme E2 N (Homo sapiens, UniProt P61088); assay type: functional;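 note: Dose-response confirmation in a TR-FRET assay detecting UBC13-driven polyubiquitin chain formation, inhibition measured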
T4 sequence (P61088 whole entry): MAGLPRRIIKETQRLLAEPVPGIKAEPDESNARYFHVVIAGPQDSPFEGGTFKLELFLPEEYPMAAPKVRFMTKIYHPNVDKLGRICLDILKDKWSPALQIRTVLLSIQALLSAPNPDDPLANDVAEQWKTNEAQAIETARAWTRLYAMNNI

[21] = biological target: Heat shock protein HSP 90-alpha (Homo sapiens, UniProt P07900); assay type: functional, organism-based

Sequence of Voltage-dependent T-type calcium channel subunit alpha-1H (O95180 whole entry): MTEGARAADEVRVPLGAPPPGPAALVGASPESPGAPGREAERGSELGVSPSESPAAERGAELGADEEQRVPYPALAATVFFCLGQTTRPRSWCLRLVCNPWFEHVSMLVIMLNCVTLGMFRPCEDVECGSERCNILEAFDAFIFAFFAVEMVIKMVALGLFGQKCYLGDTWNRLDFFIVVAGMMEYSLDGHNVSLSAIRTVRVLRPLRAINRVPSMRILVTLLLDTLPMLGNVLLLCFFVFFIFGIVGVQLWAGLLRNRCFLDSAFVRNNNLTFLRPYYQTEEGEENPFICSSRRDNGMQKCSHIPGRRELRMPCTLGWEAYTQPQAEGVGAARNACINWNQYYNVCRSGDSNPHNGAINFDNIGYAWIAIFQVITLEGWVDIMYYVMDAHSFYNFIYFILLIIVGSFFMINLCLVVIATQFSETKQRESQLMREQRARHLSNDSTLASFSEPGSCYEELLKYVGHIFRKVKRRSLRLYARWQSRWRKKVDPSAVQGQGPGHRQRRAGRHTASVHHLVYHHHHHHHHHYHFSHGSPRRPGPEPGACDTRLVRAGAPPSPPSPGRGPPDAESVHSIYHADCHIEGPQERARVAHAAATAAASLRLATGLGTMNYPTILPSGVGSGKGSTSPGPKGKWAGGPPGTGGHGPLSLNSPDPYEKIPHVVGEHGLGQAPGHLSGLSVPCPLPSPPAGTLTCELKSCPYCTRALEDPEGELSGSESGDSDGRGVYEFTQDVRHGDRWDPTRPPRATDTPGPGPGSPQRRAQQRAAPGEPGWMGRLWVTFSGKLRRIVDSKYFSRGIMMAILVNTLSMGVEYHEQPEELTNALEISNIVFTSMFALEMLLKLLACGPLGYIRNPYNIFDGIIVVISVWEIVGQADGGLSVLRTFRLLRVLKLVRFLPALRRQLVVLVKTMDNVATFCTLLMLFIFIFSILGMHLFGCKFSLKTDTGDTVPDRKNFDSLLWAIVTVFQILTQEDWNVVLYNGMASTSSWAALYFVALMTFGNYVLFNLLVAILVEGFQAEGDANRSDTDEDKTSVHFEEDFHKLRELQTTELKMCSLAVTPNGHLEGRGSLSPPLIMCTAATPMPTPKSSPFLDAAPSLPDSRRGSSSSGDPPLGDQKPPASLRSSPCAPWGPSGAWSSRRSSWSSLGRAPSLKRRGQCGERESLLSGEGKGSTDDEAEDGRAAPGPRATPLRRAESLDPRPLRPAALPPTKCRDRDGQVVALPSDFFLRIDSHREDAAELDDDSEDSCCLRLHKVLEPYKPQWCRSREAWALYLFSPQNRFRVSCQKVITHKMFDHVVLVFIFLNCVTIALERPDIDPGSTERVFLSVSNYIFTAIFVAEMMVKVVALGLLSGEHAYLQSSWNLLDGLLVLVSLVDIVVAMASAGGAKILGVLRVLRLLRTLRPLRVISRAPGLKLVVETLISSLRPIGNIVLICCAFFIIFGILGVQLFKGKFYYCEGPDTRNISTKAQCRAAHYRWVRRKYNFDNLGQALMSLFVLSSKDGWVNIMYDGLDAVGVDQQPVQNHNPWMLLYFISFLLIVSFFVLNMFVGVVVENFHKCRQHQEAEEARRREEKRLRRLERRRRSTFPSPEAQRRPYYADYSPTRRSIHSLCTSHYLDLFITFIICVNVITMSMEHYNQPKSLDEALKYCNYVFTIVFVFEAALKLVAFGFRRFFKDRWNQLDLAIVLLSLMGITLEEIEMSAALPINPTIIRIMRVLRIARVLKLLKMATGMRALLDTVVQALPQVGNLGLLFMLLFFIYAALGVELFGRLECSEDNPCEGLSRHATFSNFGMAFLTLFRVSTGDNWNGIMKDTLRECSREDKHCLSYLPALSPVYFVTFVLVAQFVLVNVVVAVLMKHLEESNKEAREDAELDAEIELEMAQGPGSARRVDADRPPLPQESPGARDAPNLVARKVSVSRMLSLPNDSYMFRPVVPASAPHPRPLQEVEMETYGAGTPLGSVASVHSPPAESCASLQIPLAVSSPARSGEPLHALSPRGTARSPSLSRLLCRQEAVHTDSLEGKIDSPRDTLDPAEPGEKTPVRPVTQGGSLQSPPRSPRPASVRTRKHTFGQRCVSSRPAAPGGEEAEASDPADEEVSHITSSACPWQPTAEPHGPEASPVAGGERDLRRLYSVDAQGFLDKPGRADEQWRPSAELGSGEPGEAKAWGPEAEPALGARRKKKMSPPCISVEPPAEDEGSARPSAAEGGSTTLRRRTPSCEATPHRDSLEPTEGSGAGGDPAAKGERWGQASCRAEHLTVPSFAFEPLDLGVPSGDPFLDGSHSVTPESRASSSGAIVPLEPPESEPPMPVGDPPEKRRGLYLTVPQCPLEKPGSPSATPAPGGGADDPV

In the case of COc1ccc(OC)c2sc(NC(=O)C3COc4ccccc4O3)nc12 (stereo not given), the EC50 [1] is reported as 78 µM (active).
With O=C(CCSc1ccc(Cl)c(Cl)c1)NC12CC3CC(CC(C3)C1)C2 the EC50 [1] was 5.57 µM (active).
With Cc1ccccc1NC(=O)c1c(F)c(F)c(F)c(F)c1F the AC50 [2] was 29.3 µM (active).
In the case of CCOC(=O)c1sc(NC(=O)CNCc2ccccn2)c(C(=O)OCC)c1C, the EC50 (Streptococcus) is reported as 5.05 µM (active), the EC50 [3] is reported as 195 nM (active) and the IC50 (Nonstructural protein 1) is reported as 8.76 µM (active). For the same compound, the EC50 [4] was 11.7 µM (active), the EC50 [5] was 9.71 µM (active) and the EC50 [6] was 8.92 µM (active). For the same compound, the AC50 (HEK293 [7]) was 2.35 µM (active).
For Cc1ccc(C(=O)NCc2ccc3c(c2)OCO3)cc1S(=O)(=O)N1CCCCC1, the EC50 [1] was 5.23 µM (active).
For Cc1nnc2c(N(C)S(=O)(=O)c3ccccc3)nc3ccccc3n12, the EC50 [8] was > 112 µM (not active), the EC50 [9] was > 112 µM (not active) and the EC50 [10] was > 91.2 µM (inactive). The EC50 [11] was > 91.2 µM (inactive).
In the case of CCCCn1c(=O)c(C(=O)Nc2nnc(C(C)C)s2)c(O)c2ccccc21, the IC50 (cells [12]) is reported as 5.24 µM (active).
In the case of COc1ccccc1/C=C1/SC(=S)N(C(C)C(=O)NC2C=CS(=O)(=O)C2)C1=O (stereo not given), the AC50 [2] is reported as > 60 µM (inactive) and the EC50 [13] is reported as 57.9 µM (active).
In the case of O=C(OCc1nnc(-c2ccccc2)o1)c1cc(S(=O)(=O)N2CCOCC2)c(Cl)cc1Cl, the AC50 [2] is reported as 10.8 µM (active).
With CCCCOC(=O)n1c(=O)oc2cc(S(=O)(=O)N3CCCCC3)ccc21 the EC50 (cells [14]) was > 350 µM (not active), the EC50 (cells [15]) was > 350 µM (not active) and the EC50 [1] was 4.48 µM (active).
With CC(C)c1c(CN(C)C(C)Cc2ccccc2)n(C)n(-c2ccccc2)c1=O (stereo not given) [FAMPROFAZONE] the AC50 (HEK293 [7]) was 292 µM (active).
With O=C(NC(NC(=S)Nc1ccccc1Cl)C(Cl)(Cl)Cl)c1cccc(Cl)c1 (stereo not given) the IC50 (HEK293 [16]) was 3.72 µM (active), the EC50 (Streptococcus) was 3.79 µM (active) and the EC50 [3] was 2050 nM (active). The EC50 (Streptokinase A) was 5.81 µM (active), the IC50 (HEK293 [17]) was 11.5 µM (active) and the IC50 (HEK293 [18]) was 3.78 µM (active). The EC50 (HEK293 [19]) was > 20 µM (inactive).
With CC(C(=O)OCC(=O)Nc1ccc(S(=O)(=O)N2CCCCC2)cc1)N1C(=O)c2ccccc2C1=O (stereo not given) the EC50 [1] was 5.44 µM (active).
For CC1CCCCN1C(=O)CSCC(=O)Nc1nc(-c2cccs2)cs1 (stereo not given), the EC50 [1] was 4.06 µM (active).
In the case of COCCCNC(=S)NNC(=O)c1ccccn1, the IC50 [20] is reported as > 20 µM (inactive), the AC50 [2] is reported as 24.1 µM (active) and the IC50 (Nonstructural protein 1) is reported as 2.32 µM (active).
With COc1cccc(C(=O)COC(=O)c2cccs2)c1 the EC50 [10] was > 91.1 µM (inactive) and the EC50 [11] was > 91.1 µM (inactive).
For CCc1sc(C(=O)Nc2nc(-c3ccccn3)cs2)cc1C, the AC50 [21] was 7.91 µM (active) and the AC50 (HEK293 [7]) was 1.33 µM (active).
For O=C(N/N=C/c1ccc(OC(=O)c2cccs2)cc1)c1ccccn1, the IC50 (cells [12]) was 5.37 µM (active).
